One experiment deals with MDA-MB-435. Description: Cytotoxicity against human MDA-MB-435 cells. It is filed as functional, cell-based.
A further experiment relates to A549. Description: Inhibition of NF-kappaB nuclear translocation in human A549 cells. It is filed as functional, cell-based.

Consider `O=C1/C(=C/c2ccccc2F)CNC/C1=C\c1ccccc1F`, for which the IC50 in the experiment on MDA-MB-435 was 1.5 µM; in the experiment with A549, 1.3 µM. With `O=C1/C(=C/c2ccccn2)CNC/C1=C\c1ccccn1`, the IC50 in the experiment on MDA-MB-435 was determined as 1 µM. In the experiment with A549, `COc1cc(/C=C/C(=O)CC(=O)/C=C/c2ccc(O)c(OC)c2)ccc1O` [CURCUMIN] displayed a half-maximal inhibitory concentration (IC50) of 13 µM.

Values taken from ChEMBL document CHEMBL1154655, “Curcumin analog cytotoxicity against breast cancer cells: exploitation of a redox-dependent mechanism” (Bioorg Med Chem Lett, 2009).
